Results from patent publication US11708360B2, “N-substituted-dioxocyclobutenylamino-3-hydroxy-picolinamides useful as CCR6 inhibitors” (Pfizer Inc., priority 2018, dated 2023).
Like-named read-outs stand apart in the source and are kept apart here. Values belong to the compound of their own block, whether it stands above or below them.

Experiments:
CXCR2 [1] = target: T1, CXCR2 (Homo sapiens, UniProt P25025); set-up: host or cells: Path-Hunter HEK293 cells; conditions: Table 16; data disclosed in WO 2013/061005; β-arrestin recruitment, CXCL8, Path-Hunter HEK293 cells; cited from earlier work
T1 sequence (P25025 1-360): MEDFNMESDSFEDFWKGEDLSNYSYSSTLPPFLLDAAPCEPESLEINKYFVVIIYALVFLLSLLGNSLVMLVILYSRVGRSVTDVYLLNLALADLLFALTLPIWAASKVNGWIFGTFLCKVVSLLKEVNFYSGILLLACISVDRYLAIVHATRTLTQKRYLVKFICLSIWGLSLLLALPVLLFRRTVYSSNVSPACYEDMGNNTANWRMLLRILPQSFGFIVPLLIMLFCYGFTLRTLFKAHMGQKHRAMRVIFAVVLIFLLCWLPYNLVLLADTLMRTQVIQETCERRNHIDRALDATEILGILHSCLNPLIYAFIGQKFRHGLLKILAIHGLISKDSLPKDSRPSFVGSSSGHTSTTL

CXCR2 [2] = target: T1, CXCR2; experiment: Human Neutrophil Chemotaxis Assay; assay type: cell-based; set-up: Human neutrophils were purified from freshly drawn human whole blood; endogenous in cells; host or cells: primary human neutrophils from fresh whole blood
Method: After 30 min, the labeled neutrophils were washed twice in chemotaxis buffer, resuspended as before and used immediately. For the assay, test compounds were tested in a dose-response format to determine IC50. Labeled neutrophils (50 μL) were pre-incubated with diluted test compound (50 μL) for 30 min in a 96-well plate (Greiner). Next, 100 μL of diluted compound was mixed with 100 μL of GROα (Peprotech #300-11, 2 nM) in the bottom portion of the chemotaxis chamber. The top portion (insert) of the chemotaxis system containing the FluoroBlok porous membrane was then assembled together. 50 μL of the pre-incubated neutrophils were added to the FluoroBlok insert (top portion) and chemotaxis measured by the neutrophils ability to migrate through the membrane towards the specific CXCR2 ligand, GROα.
IC50 values for compounds of the present invention (Table 12) were determined by the non-linear regression analysis of dose response curves.

CCR6 = target: T2, CCR6 (Homo sapiens, UniProt P51684); experiment: CCR6+ T Cell Chemotaxis Assay; assay type: cell-based; conditions: for T Cell Chemotaxis Selectivity: Table 13, T cell chemotaxis compared to neutrophil chemotaxis; for T Cell Chemotaxis Selectivity / R = H, T Cell Chemotaxis Selectivity: NS = not selective for T cell chemotaxis compared to neutrophil chemotaxis
T2 construct: Human CD4+CCR6+CXCR3-T cells were isolated from leukopak from healthy donors; endogenous in cells
T2 sequence (P51684 1-374): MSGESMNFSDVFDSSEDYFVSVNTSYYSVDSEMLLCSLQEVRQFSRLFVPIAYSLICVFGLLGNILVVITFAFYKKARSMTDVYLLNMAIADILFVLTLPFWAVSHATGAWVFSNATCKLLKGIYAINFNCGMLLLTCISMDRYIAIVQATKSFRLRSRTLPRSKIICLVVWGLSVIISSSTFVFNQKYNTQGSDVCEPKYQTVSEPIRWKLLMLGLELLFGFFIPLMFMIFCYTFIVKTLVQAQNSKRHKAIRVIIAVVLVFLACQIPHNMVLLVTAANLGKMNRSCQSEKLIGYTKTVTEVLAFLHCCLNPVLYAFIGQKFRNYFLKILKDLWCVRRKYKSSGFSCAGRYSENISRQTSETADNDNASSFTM
From the text: Human CD4+CCR6+CXCR3-T cells were isolated from leukopak from healthy donors using EasySep™ Human Th17 Cell Enrichment Kit. […] Day 4 post activation, Dynabeads were removed from the culture. The activated T cells were maintained at 1-2×10^6 cells/mL for 15 days by feeding fresh growth media when needed.
For IC50 determination, the top and bottom of the chemotaxis chamber contained the same concentration of compound. DMSO was kept constant at 0.1% (v/v) in all wells. The final concentration of CCL20 (Peprotech 300-29A) in the bottom chamber is 0.5 nM. The fully assembled chemotaxis plate was placed in a cell culture incubator at 37° C., 5% CO2 for 1 h. After incubation, the top filter was removed, followed by a quick freeze of the bottom chamber at −80° C. for 1 h. The migrated cells in the bottom chamber were stained with CyQUANT dye (Life Technologies, C7026) for cell number determination.
IC50 values for compounds of the present invention (Table 11) were determined by the non-linear regression analysis of dose response curves.

[3] = Table 17, WO 2013/061005 comparator compounds, read-out: IC50 (nM) CXCR2 Neutrophil, GROα Chemotaxis
[4] = Table 11, human CD4+CCR6+CXCR3- T cells, CCL20 0.5 nM in bottom chamber, 1 h at 37° C., read-out: IC50
[5] = Table 12, human neutrophils migrating towards the CXCR2 ligand GROα, read-out: IC50
[6] = Table 14, R = H, read-out: R = H, IC50 (nM) CCR6 T cell, CCL20 Chemotaxis
[7] = Table 14, R = H, read-out: R = H, IC50 (nM) CXCR2 Neutrophil, GROα Chemotaxis

IC50 (CXCR2 [2]; [3]): 35.2 nM
SMILES: Cc1ccc([C@H](Nc2c(Nc3ccc(Cl)c(S(=O)(=O)N(C)C)c3O)c(=O)c2=O)C2(C)COC2)o1 [Example 22 (WO 2013/061005), reference compound]
IC50 (CXCR2 [1]): 31 nM

IC50 (CCR6; [4]): 45.4 nM | T Cell Chemotaxis Selectivity (CCR6): 60 | IC50 (CXCR2 [2]; [5]): 2750 nM
SMILES: CC(C)N(C)C(=O)c1nccc(Nc2c(N[C@@H](c3nn(C)cc3C#N)C3(C)CCCC3)c(=O)c2=O)c1O [Example 31, (R)-4-((2-(((4-cyano-1-methyl-1H-pyrazol-3-yl)(1-methylcyclopentyl)methyl)amino)-3,4-dioxocyclobut-1-en-1-yl)amino)-3-hydroxy-N-isopropyl-N-methylpicolinamide]

IC50 (CCR6; [4]): 2.7 nM | T Cell Chemotaxis Selectivity (CCR6): 123 | R = CH3, T Cell Chemotaxis Selectivity (CCR6; Table 14, R = CH3): 123 | IC50 (CCR6; Table 14, R = CH3, read-out: R = CH3, IC50 (nM) CCR6 T cell, CCL20 Chemotaxis): 2.7 nM | IC50 (CXCR2 [2]; [5]): 332 nM | IC50 (CXCR2 [2]; Table 14, R = CH3, read-out: R = CH3, IC50 (nM) CXCR2 Neutrophil, GROα Chemotaxis): 332 nM
SMILES: Cc1nc([C@H](Nc2c(Nc3ccnc(C(=O)N(C)C)c3O)c(=O)c2=O)C2(C)CCCC2)c(C)s1 [Example 32, (R)-4-((2-(((2,5-Dimethylthiazol-4-yl)(1-methylcyclopentyl)-methyl)amino)-3,4-dioxocyclobut-1-en-1-yl)amino)-3-hydroxy-N,N-dimethylpicolinamide]

IC50 (CCR6; [4]): 4.4 nM | T Cell Chemotaxis Selectivity (CCR6): 16 | IC50 (CXCR2 [2]; [5]): 69.9 nM
SMILES: COc1sc(C)nc1[C@H](Nc1c(Nc2ccnc(C(=O)N(C)C)c2O)c(=O)c1=O)C1(C)CCCC1 [Example 33, (R)-3-Hydroxy-4-((2-(((5-methoxy-2-methylthiazol-4-yl)(1-methylcyclopentyl)methyl)amino)-3,4-dioxocyclobut-1-en-1-yl)amino)-N,N-dimethylpicolinamide]

IC50 (CCR6; [4]): 5.2 nM | T Cell Chemotaxis Selectivity (CCR6): 698 | IC50 (CXCR2 [2]; [5]): 3630 nM
SMILES: CCc1cn(C)nc1[C@H](Nc1c(Nc2ccnc(C(=O)N(C)C)c2O)c(=O)c1=O)[C@]1(C)CC(F)(F)CO1 [Example 37, 4-((2-(((S)-((S)-4,4-Difluoro-2-methyltetrahydrofuran-2-yl) (4-ethyl-1-methyl-1H-pyrazol-3-yl)methyl)amino)-3,4-dioxocyclobut-1-en-1-yl)amino)-3-hydroxy-N,N-dimethylpicolinamide]

IC50 (CCR6; [4]): 12.6 nM | T Cell Chemotaxis Selectivity (CCR6): 274 | IC50 (CXCR2 [2]; [5]): 3460 nM
SMILES: Cc1nc([C@H](Nc2c(Nc3ccnc(C(=O)N(C)C)c3O)c(=O)c2=O)[C@]2(C)CC(F)(F)CO2)c(C)s1 [Example 38, 4-((2-(((S)-((S)-4,4-Difluoro-2-methyltetrahydrofuran-2-yl) (2,5-dimethylthiazol-4-yl)methyl)amino)-3,4-dioxocyclobut-1-en-1-yl)amino)-3-hydroxy-N,N-dimethylpicolinamide]

IC50 (CXCR2 [2]; [3]): 1140 nM
SMILES: Cc1ccc([C@H](Nc2c(Nc3ccc(Cl)c(C(=O)N4CCN(C)CC4)c3O)c(=O)c2=O)C2(C)COC2)o1 [Example 53, reference compound]
IC50 (CXCR2 [1]): 30 nM

IC50 (CCR6; Table 15, WO 2010/131145 comparator compounds, read-out: IC50 (nM) CCR6 T cell, CCL20 Chemotaxis): 388 nM | IC50 (CXCR2 [2]; Table 15, WO 2010/131145 comparator compounds, read-out: IC50 (nM) CXCR2 Neutrophil, GROα Chemotaxis): 5.7 nM
SMILES: CC[C@@H](Nc1c(Nc2ccnc(C(=O)N(C)C)c2O)c(=O)c1=O)c1cccc(C2CC2)c1 [Example 120, reference compound]

R = H, T Cell Chemotaxis Selectivity (CCR6; Table 14, R = H): 2.2 | IC50 (CCR6; [6]): 19.2 nM | IC50 (CXCR2 [2]; [7]): 42.1 nM
SMILES: CN(C)C(=O)c1nccc(Nc2c(NC(c3ccn(C)n3)C3(C)CCCC3)c(=O)c2=O)c1O (centres unmarked) [drawing 179 (R = H), reference compound]

R = H, T Cell Chemotaxis Selectivity (CCR6; Table 14, R = H): 10.8 | IC50 (CCR6; [6]): 32.1 nM | IC50 (CXCR2 [2]; [7]): 346 nM
SMILES: Cc1nc([C@H](Nc2c(Nc3ccnc(C(=O)N(C)C)c3O)c(=O)c2=O)C2(C)CCCC2)cs1 [drawing 180 (R = H), reference compound]

IC50 (CCR6; [6]): 64.5 nM | IC50 (CXCR2 [2]; [7]): 12.2 nM
SMILES: Cc1nc([C@H](Nc2c(Nc3ccnc(C(=O)N(C)C)c3O)c(=O)c2=O)C2(C)CCCC2)co1 [drawing 181 (R = H), reference compound]
